{"source": "patent US12285407B2", "about": "“Bis-indolylmethane derivatives and uses thereof” (The University of The West Indies, priority 2018, dated 2025)", "key": {"MRSA": {"test_system": "MRSA", "test": "Adjuvant broth microdilution (antibiotic MIC with SP-BIM at 50 μg/mL)", "type": "cell-based, Staphylococcus aureus", "conditions": "antibiotic alone; for MIC: Staphylococcus aureus, Table 4, read-out: MIC of antibiotic, No compound; for MIC of antibiotic, No Compound: Table 8 (series SP-BIMs 21-29)"}, "[1]": {"test_system": "clinical antibiotic resistant isolates of MRSA", "test": "Checkerboard resistance breaking by SP-BIM 13", "type": "cell-based, Staphylococcus aureus", "conditions": "for FIC compound / Rescue concentration of SP-BIM 13: SP-BIM 13 with the labelled antibiotic; for Interpretation / Σ FIC: antibiotic + SP-BIM 13; for MIC of antibiotic only: antibiotic alone; for FIC antibiotic: combination with SP-BIM 13; for MIC of antibiotic in combination: with SP-BIM 13 at rescue concentration"}, "Enterococcus faecalis": {"test_system": "Enterococcus faecalis", "test": "Adjuvant broth microdilution (antibiotic MIC with SP-BIM at 50 μg/mL)", "type": "cell-based", "conditions": "antibiotic alone"}, "Enterococcus faecium": {"test_system": "Enterococcus faecium", "test": "Checkerboard synergy (FICI) of antibiotics with SP-BIM", "type": "cell-based", "conditions": "Enterococcus faecium, Enterococcus faecium; for MIC: 24 h, antibiotic alone, read-out: MIC antibiotic only"}, "Escherichia coli O157:H7": {"test_system": "Escherichia coli O157:H7", "type": "cell-based", "conditions": "antibiotic alone, no SP-BIM"}, "Enterobacter cloacae": {"test_system": "Enterobacter cloacae", "test": "Adjuvant broth microdilution (antibiotic MIC with SP-BIM at 50 μg/mL)", "type": "cell-based", "conditions": "antibiotic alone"}, "Bacillus cereus": {"test_system": "Bacillus cereus", "test": "Adjuvant broth microdilution (antibiotic MIC with SP-BIM at 50 μg/mL)", "type": "cell-based", "conditions": "antibiotic alone, Table 9"}, "Pseudomonas aeruginosa": {"test_system": "Pseudomonas aeruginosa", "test": "Adjuvant broth microdilution (antibiotic MIC with SP-BIM at 50 μg/mL)", "type": "cell-based", "conditions": "antibiotic alone"}, "Klebsiella pneumoniae": {"test_system": "Klebsiella pneumoniae", "test": "Adjuvant broth microdilution (antibiotic MIC with SP-BIM at 50 μg/mL)", "type": "cell-based", "conditions": "antibiotic alone; for MIC of antibiotic, No Compound: Klebsiella pneumonia, no SP-BIM; for MIC: Klebsiella pneumoniae, Table 7, read-out: MIC of antibiotic, No compound"}}, "note": "Read-outs that look alike come from different tables or passages of the source.", "data": [{"smiles": "C[C@H]1c2cccc(O)c2C(=O)C2=C(O)[C@]3(O)C(=O)C(C(N)=O)=C(O)[C@@H](N(C)C)[C@@H]3[C@@H](O)[C@@H]21", "note": "[Doxycycline, doxycycline]", "values": [{"measurement": "MIC", "setting": "MRSA", "value": 8, "unit": "µg/mL"}, {"measurement": "MIC of antibiotic, No Compound", "setting": "MRSA", "value": "<0.5", "unit": "µg/mL"}, {"measurement": "FIC compound", "setting": "[1]; MRSA strain 1594", "value": 0.3}, {"measurement": "Rescue concentration of SP-BIM 13", "setting": "[1]; MRSA strain 1594", "value": 63, "unit": "µg/mL"}, {"measurement": "Interpretation", "setting": "[1]; MRSA strain 1594", "value": "Synergy (Synergy: FICI≤0.5)"}, {"measurement": "Σ FIC", "setting": "[1]; MRSA strain 1594", "value": "<0.43"}, {"measurement": "MIC of antibiotic only", "setting": "[1]; MRSA strain 1594", "value": 8, "unit": "µg/mL"}, {"measurement": "FIC antibiotic", "setting": "[1]; MRSA strain 1594", "value": 0.125}, {"measurement": "MIC of antibiotic in combination", "setting": "[1]; MRSA strain 1594", "value": 1, "unit": "µg/mL"}, {"measurement": "FIC compound", "setting": "[1]; MRSA strain 5872", "value": 0.064}, {"measurement": "Rescue concentration of SP-BIM 13", "setting": "[1]; MRSA strain 5872", "value": 16, "unit": "µg/mL"}, {"measurement": "Interpretation", "setting": "[1]; MRSA strain 5872", "value": "Synergy (Synergy: FICI≤0.5)"}, {"measurement": "Σ FIC", "setting": "[1]; MRSA strain 5872", "value": "<0.19"}, {"measurement": "MIC of antibiotic only", "setting": "[1]; MRSA strain 5872", "value": 32, "unit": "µg/mL"}, {"measurement": "FIC antibiotic", "setting": "[1]; MRSA strain 5872", "value": 0.125}, {"measurement": "MIC of antibiotic in combination", "setting": "[1]; MRSA strain 5872", "value": 4, "unit": "µg/mL"}, {"measurement": "FIC compound", "setting": "[1]; MRSA strain 7153", "value": 0.128}, {"measurement": "Rescue concentration of SP-BIM 13", "setting": "[1]; MRSA strain 7153", "value": 32, "unit": "µg/mL"}, {"measurement": "Interpretation", "setting": "[1]; MRSA strain 7153", "value": "Synergy (Synergy: FICI≤0.5)"}, {"measurement": "Σ FIC", "setting": "[1]; MRSA strain 7153", "value": "<0.25"}, {"measurement": "MIC of antibiotic only", "setting": "[1]; MRSA strain 7153", "value": 8, "unit": "µg/mL"}, {"measurement": "FIC antibiotic", "setting": "[1]; MRSA strain 7153", "value": 0.125}, {"measurement": "MIC of antibiotic in combination", "setting": "[1]; MRSA strain 7153", "value": 1, "unit": "µg/mL"}, {"measurement": "FIC compound", "setting": "[1]; MRSA strain 7172", "value": 0.128}, {"measurement": "Rescue concentration of SP-BIM 13", "setting": "[1]; MRSA strain 7172", "value": 32, "unit": "µg/mL"}, {"measurement": "Interpretation", "setting": "[1]; MRSA strain 7172", "value": "Synergy (Synergy: FICI≤0.5)"}, {"measurement": "Σ FIC", "setting": "[1]; MRSA strain 7172", "value": "<0.38"}, {"measurement": "MIC of antibiotic only", "setting": "[1]; MRSA strain 7172", "value": 8, "unit": "µg/mL"}, {"measurement": "FIC antibiotic", "setting": "[1]; MRSA strain 7172", "value": 0.250}, {"measurement": "MIC of antibiotic in combination", "setting": "[1]; MRSA strain 7172", "value": 2, "unit": "µg/mL"}, {"measurement": "FIC compound", "setting": "[1]; MRSA strain 7698", "value": 0.128}, {"measurement": "Rescue concentration of SP-BIM 13", "setting": "[1]; MRSA strain 7698", "value": 32, "unit": "µg/mL"}, {"measurement": "Interpretation", "setting": "[1]; MRSA strain 7698", "value": "Synergy (Synergy: FICI≤0.5)"}, {"measurement": "Σ FIC", "setting": "[1]; MRSA strain 7698", "value": "<0.19"}, {"measurement": "MIC of antibiotic only", "setting": "[1]; MRSA strain 7698", "value": 16, "unit": "µg/mL"}, {"measurement": "FIC antibiotic", "setting": "[1]; MRSA strain 7698", "value": 0.063}, {"measurement": "MIC of antibiotic in combination", "setting": "[1]; MRSA strain 7698", "value": 1, "unit": "µg/mL"}, {"measurement": "FIC compound", "setting": "[1]; MRSA strain 10132", "value": 0.032}, {"measurement": "Rescue concentration of SP-BIM 13", "setting": "[1]; MRSA strain 10132", "value": 8, "unit": "µg/mL"}, {"measurement": "Interpretation", "setting": "[1]; MRSA strain 10132", "value": "Synergy (Synergy: FICI≤0.5)"}, {"measurement": "Σ FIC", "setting": "[1]; MRSA strain 10132", "value": "<0.09"}, {"measurement": "MIC of antibiotic only", "setting": "[1]; MRSA strain 10132", "value": 8, "unit": "µg/mL"}, {"measurement": "FIC antibiotic", "setting": "[1]; MRSA strain 10132", "value": 0.063}, {"measurement": "MIC of antibiotic in combination", "setting": "[1]; MRSA strain 10132", "value": 0.5, "unit": "µg/mL"}, {"measurement": "MIC of antibiotic, No Compound", "setting": "Enterococcus faecalis", "value": 0.5, "unit": "µg/mL"}, {"measurement": "MIC", "setting": "Enterococcus faecium; SP-BIM 9 checkerboard", "value": 8, "unit": "µg/mL"}, {"measurement": "MIC", "setting": "Enterococcus faecium; SP-BIM 13 checkerboard", "value": 8, "unit": "µg/mL"}, {"measurement": "FIC of SP-BIM 13", "setting": "Enterococcus faecium; SP-BIM 13 in combination with the labelled antibiotic", "value": 0.5}, {"measurement": "Interpretation", "setting": "Enterococcus faecium; antibiotic + SP-BIM 13", "value": "Additive (Additive: FICI>0.5-1.0)"}, {"measurement": "Σ FIC", "setting": "Enterococcus faecium; antibiotic + SP-BIM 13", "value": 0.6}, {"measurement": "MIC in combination, Antibiotic", "setting": "Enterococcus faecium; antibiotic in combination with SP-BIM 13", "value": 1, "unit": "µg/mL"}, {"measurement": "FIC of antibiotic", "setting": "Enterococcus faecium; in combination with SP-BIM 13", "value": 0.1}, {"measurement": "MIC of antibiotic, No Compound", "setting": "Escherichia coli O157:H7", "value": 2, "unit": "µg/mL"}, {"measurement": "MIC of antibiotic, No Compound", "setting": "Enterobacter cloacae", "value": 4, "unit": "µg/mL"}, {"measurement": "MIC of antibiotic, No Compound", "setting": "Bacillus cereus", "value": "<0.5", "unit": "µg/mL"}, {"measurement": "MIC of antibiotic, No Compound", "setting": "Pseudomonas aeruginosa", "value": 32, "unit": "µg/mL"}, {"measurement": "MIC of antibiotic, No Compound", "setting": "Klebsiella pneumoniae", "value": 8, "unit": "µg/mL"}, {"measurement": "MIC", "setting": "Klebsiella pneumoniae", "value": 32, "unit": "µg/mL"}]}, {"smiles": "CC[C@H]1OC(=O)[C@H](C)[C@@H](O[C@H]2C[C@@](C)(OC)[C@@H](O)[C@H](C)O2)[C@H](C)[C@@H](O[C@@H]2O[C@H](C)C[C@H](N(C)C)[C@H]2O)[C@](C)(O)C[C@@H](C)C(=O)[C@H](C)[C@@H](O)[C@]1(C)O", "note": "[Erythromycin, erythromycin]", "values": [{"measurement": "MIC", "setting": "MRSA", "value": 4, "unit": "µg/mL"}, {"measurement": "MIC of antibiotic, No Compound", "setting": "MRSA", "value": 8, "unit": "µg/mL"}, {"measurement": "Rescue concentration of SP-BIM 13", "setting": "[1]; MRSA strain 5872", "value": 32, "unit": "µg/mL"}, {"measurement": "Interpretation", "setting": "[1]; MRSA strain 5872", "value": "Synergy (Synergy: FICI≤0.5)"}, {"measurement": "Σ FIC", "setting": "[1]; MRSA strain 5872", "value": "<0.14"}, {"measurement": "MIC of antibiotic only", "setting": "[1]; MRSA strain 5872", "value": 250, "unit": "µg/mL"}, {"measurement": "FIC antibiotic", "setting": "[1]; MRSA strain 5872", "value": 0.016}, {"measurement": "MIC of antibiotic in combination", "setting": "[1]; MRSA strain 5872", "value": 4, "unit": "µg/mL"}, {"measurement": "Rescue concentration of SP-BIM 13", "setting": "[1]; MRSA strain 10132", "value": 32, "unit": "µg/mL"}, {"measurement": "Interpretation", "setting": "[1]; MRSA strain 10132", "value": "Synergy (Synergy: FICI≤0.5)"}, {"measurement": "MIC of antibiotic only", "setting": "[1]; MRSA strain 10132", "value": 250, "unit": "µg/mL"}, {"measurement": "FIC antibiotic", "setting": "[1]; MRSA strain 10132", "value": 0.004}, {"measurement": "MIC of antibiotic in combination", "setting": "[1]; MRSA strain 10132", "value": 1, "unit": "µg/mL"}, {"measurement": "MIC of antibiotic, No Compound", "setting": "Enterococcus faecalis", "value": 250, "unit": "µg/mL"}, {"measurement": "MIC of antibiotic, No Compound", "setting": "Escherichia coli O157:H7", "value": 250, "unit": "µg/mL"}, {"measurement": "MIC of antibiotic, No Compound", "setting": "Enterobacter cloacae", "value": ">250", "unit": "µg/mL"}, {"measurement": "MIC of antibiotic, No Compound", "setting": "Bacillus cereus", "value": 4, "unit": "µg/mL"}, {"measurement": "MIC of antibiotic, No Compound", "setting": "Pseudomonas aeruginosa", "value": ">250", "unit": "µg/mL"}, {"measurement": "MIC of antibiotic, No Compound", "setting": "Klebsiella pneumoniae", "value": ">250", "unit": "µg/mL"}, {"measurement": "MIC", "setting": "Klebsiella pneumoniae", "value": 32, "unit": "µg/mL"}]}]}
